Experimental data from US8883782B2, “Spiro-tetracyclic ring compounds as beta-secretase modulators and methods of use” (Amgen Inc., priority 2010, dated 2014).
Where two headings read alike, the source gives them in different places.

Columns and labels:
[1] = target: Beta Secretase enzyme (BACE) (Homo sapiens, UniProt P56817); test: In vitro enzymatic BACE FRET (fluorescence resonance energy transfer) assay; format: biochemical; settings: average IC50, enzyme assay; read-out: BACE 1 FRET assay
How it was run: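 Run in 0.05 M acetate pH 4.2 with 10% DMSO final and 100 uM genapol; started by adding 50 nM FRET peptide substrate (fluorophore and quencher flanking the cleavage site), incubated one hour, then stopped with Tris to neutral pH before reading fluorescence.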

[2] = system: Aβ40 in conditioned medium of cells stably expressing Amyloid Precursor Protein (APP); test: In vitro BACE cell-based assay (Aβ40 in conditioned medium, sandwich ELISA); settings: Homo sapiens, read-out: HEK cell assay
How it was run: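 Secreted Aβ40 is captured with pAb40 and detected with biotinylated 6E10, read by europium time-resolved fluorescence. IC50 comes from percent inhibition versus concentration.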

[3] = HEK293, average IC50, HEK cells

Chain of Beta Secretase enzyme (BACE) (P56817 46-501, species assumed): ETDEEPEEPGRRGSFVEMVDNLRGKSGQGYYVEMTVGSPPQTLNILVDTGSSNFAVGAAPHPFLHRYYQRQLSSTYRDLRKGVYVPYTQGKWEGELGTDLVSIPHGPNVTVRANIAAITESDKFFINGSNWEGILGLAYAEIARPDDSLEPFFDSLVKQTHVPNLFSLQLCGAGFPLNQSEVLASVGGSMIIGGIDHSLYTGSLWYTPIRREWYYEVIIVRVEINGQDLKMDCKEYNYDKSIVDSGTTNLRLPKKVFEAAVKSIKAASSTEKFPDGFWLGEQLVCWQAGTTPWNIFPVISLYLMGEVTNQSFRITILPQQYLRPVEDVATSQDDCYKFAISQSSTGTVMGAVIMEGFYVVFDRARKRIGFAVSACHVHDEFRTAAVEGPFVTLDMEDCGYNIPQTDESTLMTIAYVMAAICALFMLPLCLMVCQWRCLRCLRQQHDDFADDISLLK

Row | Compound | IC50 [1] [nM] | IC50 ([2]; HEK293, average IC50) [nM] | IC50 [2, 3] [nM]
1 | CC1(COc2cc(F)c3c(c2)[C@]2(COC(N)=N2)c2cc(-c4ccc(F)nc4)ccc2O3)COC1 [Example 266, (4S)-4′-fluoro-7′-(6-fluoro-3-pyridinyl)-2′-((3-methyl-3-oxetanyl)methoxy)spiro[1,3-oxazole-4,9′-xanthen]-2-amine] | 2.2 | 6.8 | –
2 | CC1(C#Cc2cnc3c(c2)[C@]2(COC(N)=N2)c2cc(-c4ccc(F)c(C#N)c4)ccc2O3)COC1 [Example 787, 5-((5S)-2′-amino-3-((3-methyl-3-oxetanyl)ethynyl)spiro[chromeno[2,3-b]pyridine-5,4′-[1,3]oxazol]-7-yl)-2-fluorobenzonitrile] | 5.6 | 44 | –
3 | NC1=N[C@@]2(CS1)c1cc(-c3cnccc3F)ccc1Oc1ncc(C3=CCCOC3)cc12 [Example 773, (5S)-3-(5,6-dihydro-2H-pyran-3-yl)-7-(4-fluoro-3-pyridinyl)spiro[chromeno[2,3-b]pyridine-5,4′-[1,3]thiazol]-2′-amine] | 0.8 | 14 | –
4 | CC1(C)CC(c2cc3c(cn2)Oc2ccc(-c4cncc(F)c4)cc2[C@@]32COC(N)=N2)=CCO1 [Example 371, (5S)-3-(2,2-dimethyl-3,6-dihydro-2H-pyran-4-yl)-7-(5-fluoro-3-pyridinyl)spiro[chromeno[2,3-c]pyridine-5,4′-[1,3]oxazol]-2′-amine] | 2 | 10.7 | –
5 | NC1=N[C@]2(CO1)c1cc(C3=CCOCC3)cc(F)c1Oc1ccc(-c3cccnc3F)c(F)c12 [Example 1047, (4R)-7′-(3,6-dihydro-2H-pyran-4-yl)-1′,5′-difluoro-2′-(2-fluoro-3-pyridinyl)spiro[1,3-oxazole-4,9′-xanthen]-2-amine] | 4.6 | 95 | –
6 | CC1(COc2cnc3c(c2)C2(COC(N)=N2)c2cc(-c4cc(Cl)ccc4F)ccc2O3)OCCO1 (stereo not drawn) [Example 87, 7-(5-chloro-2-fluorophenyl)-3-((2-methyl-1,3-dioxolan-2-yl)methoxy)-5′H-spiro[chromeno[2,3-b]pyridine-5,4′-oxazol]-2′-amine] | 8.4 | 106 | –
7 | NC1=N[C@@]2(CO1)c1cc(-c3cnccn3)ccc1Oc1c(F)cc(N3CCOCC3)cc12 [Example 269, (4S)-4′-fluoro-2′-(4-morpholinyl)-7′-(2-pyrazinyl)spiro[1,3-oxazole-4,9′-xanthen]-2-amine] | 5.2 | 18.8 | –
8 | CC#Cc1cncc(-c2ccc3c(c2)[C@@]2(COC(N)=N2)c2cc(OC)cc(F)c2O3)n1 [Example 723, (4S)-4′-fluoro-2′-methoxy-7′-(6-(1-propyn-1-yl)-2-pyrazinyl)spiro[1,3-oxazole-4,9′-xanthen]-2-amine] | 92.6 | 958 | –
9 | CC1(C#Cc2cnc3c(c2)[C@]2(COC(N)=N2)c2cc(-c4cc(Cl)cnc4F)ccc2O3)COC1 [Example 456, (5S)-7-(5-chloro-2-fluoro-3-pyridinyl)-3-((3-methyl-3-oxetanyl)ethynyl)spiro[chromeno[2,3-b]pyridine-5,4′-[1,3]oxazol]-2′-amine] | 0.6 | – | 2.2
10 | COC(C)(C)COc1cnc2c(c1)[C@@]1(COC(N)=N1)c1cc(-c3cccc(F)c3F)ccc1O2 [Example 314, (5R)-7-(2,3-difluorophenyl)-3-(2-methoxy-2-methylpropoxy)spiro[chromeno[2,3-b]pyridine-5,4′-[1,3]oxazol]-2′-amine] | 1920 | 3660 | –
11 | NC1=N[C@@]2(CO1)c1cc(-c3cccnc3F)ccc1Oc1c2cc([C@H]2CCCCO2)nc1F [Example 660, (5S)-1-fluoro-7-(2-fluoro-3-pyridinyl)-3-((2R)-tetrahydro-2H-pyran-2-yl)spiro[chromeno[2,3-c]pyridine-5,4′-[1,3]oxazol]-2′-amine] | 0.5 | – | 8
12 | CC(C)(C)C#Cc1ccc2c(c1)[C@@]1(COC(N)=N1)c1cc(-c3ccnc(F)c3)ncc1O2 [Example 162, (5S)-7-(3,3-dimethyl-1-butyn-1-yl)-3-(2-fluoro-4-pyridinyl)spiro[chromeno[2,3-c]pyridine-5,4′-[1,3]oxazol]-2′-amine] | 23 | 775 | –
13 | NC1=N[C@@]2(CO1)c1cc(-c3cncc(F)c3)ccc1Oc1c(F)cc([C@@H]3CCCOC3)cc12 [Example 284, (4S)-4′-fluoro-7′-(5-fluoro-3-pyridinyl)-2′-((3S)-tetrahydro-2H-pyran-3-yl)spiro[1,3-oxazole-4,9′-xanthen]-2-amine] | 2.2 | 13.5 | –
14 | Cc1ccn(-c2cc(F)c3c(c2)[C@]2(COC(N)=N2)c2cc(-c4cccnc4F)ccc2O3)n1 [Example 620, (4S)-4′-fluoro-7′-(2-fluoro-3-pyridinyl)-2′-(3-methyl-1H-pyrazol-1-yl)spiro[1,3-oxazole-4,9′-xanthen]-2-amine] | 2.8 | – | 68
15 | NC1=N[C@@]2(CS1)c1cc(-c3cccnc3F)ccc1Oc1ncc(-c3cccnc3)cc12 [Example 765, (5S)-7-(2-fluoro-3-pyridinyl)-3-(3-pyridinyl)spiro[chromeno[2,3-b]pyridine-5,4′-[1,3]thiazol]-2′-amine] | 1 | 8 | –
16 | NC1=N[C@@]2(CO1)c1cc(-c3cncc(F)c3)ccc1Oc1cnc(-c3ccnc(F)c3)cc12 [Example 376, (5S)-3-(2-fluoro-4-pyridinyl)-7-(5-fluoro-3-pyridinyl)spiro[chromeno[2,3-c]pyridine-5,4′-[1,3]oxazol]-2′-amine] | 2.6 | 33 | –
17 | COc1nc(-c2ccncc2)cc2c1Oc1ccc(-c3cccnc3)cc1[C@@]21COC(N)=N1 [Example 838, (5S)-1-methoxy-7-(3-pyridinyl)-3-(4-pyridinyl)spiro[chromeno[2,3-c]pyridine-5,4′-[1,3]oxazol]-2′-amine] | 7.3 | 20 | –
18 | NC1=N[C@@]2(CO1)c1cc(-c3ccc(F)cc3)ccc1Oc1cnc(-c3cncnc3)cc12 [Example 396, (5S)-7-(4-fluorophenyl)-3-(5-pyrimidinyl)spiro[chromeno[2,3-c]pyridine-5,4′-[1,3]oxazol]-2′-amine] | 136 | – | 1080
19 | CC1(C#Cc2cc(F)c3c(c2)C2(COC(N)=N2)c2cc(-c4cncc(F)c4)ncc2O3)COC1 (stereo not drawn) [Example 661, 9-fluoro-3-(5-fluoro-3-pyridinyl)-7-((3-methyl-3-oxetanyl)ethynyl)spiro[chromeno[2,3-c]pyridine-5,4′-[1,3]oxazol]-2′-amine] | 18 | – | 852
20 | NC1=N[C@@]2(CO1)c1cc(-c3cncc(F)c3)ccc1Oc1cnc(-c3cncc(F)c3)cc12 [Example 373, (5S)-3,7-bis(5-fluoro-3-pyridinyl)spiro[chromeno[2,3-c]pyridine-5,4′-[1,3]oxazol]-2′-amine] | 2.2 | 22.8 | –
21 | CC#Cc1cncc(-c2ccc3c(c2)[C@@]2(COC(N)=N2)c2cc(C4CCOCC4)nc(F)c2O3)c1 [Example 753, (5S)-1-fluoro-7-(5-(1-propyn-1-yl)-3-pyridinyl)-3-(tetrahydro-2H-pyran-4-yl)spiro[chromeno[2,3-c]pyridine-5,4′-[1,3]oxazol]-2′-amine] | 0.7 | 4 | –
22 | CC(C)(C)COc1ccc2c(c1)[C@]1(COC(N)=N1)c1cc(C3=CCCOC3)ccc1O2 [Example 910, (4S)-2′-(5,6-dihydro-2H-pyran-3-yl)-7′-(2,2-dimethylpropoxy)spiro[1,3-oxazole-4,9′-xanthen]-2-amine] | 22.3 | – | 1770
23 | NC1=N[C@@]2(CO1)c1cc(-c3cncc(N4CC[C@@H](F)C4)c3)ccc1Oc1cnc(Cl)cc12 [Example 429, (5S)-3-chloro-7-(5-((3R)-3-fluoro-1-pyrrolidinyl)-3-pyridinyl)spiro[chromeno[2,3-c]pyridine-5,4′-[1,3]oxazol]-2′-amine] | 3230 | – | 2210
24 | CC1(C#Cc2cc3c(nc2F)Oc2ccc(-c4cccnc4F)cc2C32COC(N)=N2)COC1 (stereo not drawn) [Example 149, 2-fluoro-7-(2-fluoro-3-pyridinyl)-3-((3-methyl-3-oxetanyl)ethynyl)spiro[chromeno[2,3-b]pyridine-5,4′-[1,3]oxazol]-2′-amine] | 0.8 | 7.6 | –
25 | NC1=N[C@@]2(CS1)c1cc(-c3cncc(F)c3)ccc1Oc1ncc(-c3ncccn3)cc12 [Example 771, (5S)-7-(5-fluoro-3-pyridinyl)-3-(2-pyrimidinyl)spiro[chromeno[2,3-b]pyridine-5,4′-[1,3]thiazol]-2′-amine] | 4.6 | 96 | –
26 | NC1=N[C@@]2(CS1)c1cc(-c3cccnc3)ccc1Oc1ncc(N3CCOCC3)cc12 [Example 602, (5S)-3-(4-morpholinyl)-7-(3-pyridinyl)spiro[chromeno[2,3-b]pyridine-5,4′-[1,3]thiazol]-2′-amine] | 2.8 | – | 17
27 | NC1=N[C@@]2(CO1)c1cc(-c3cncc(F)c3)c(F)cc1Oc1ncc(C3=CCOCC3)cc12 [Example 647, (5S)-3-(3,6-dihydro-2H-pyran-4-yl)-8-fluoro-7-(5-fluoro-3-pyridinyl)spiro[chromeno[2,3-b]pyridine-5,4-[1,3]oxazol]-2′-amine] | 2.1 | – | 16
